The target of data set [1] is T1, mOATP1B2 (Mus musculus, UniProt Q9JJL3).
T1 construct: The full-length mOATP1B2 and rOATP1B2 consist of 689 and 678 amino acids
T1 sequence (Q9JJL3 1-689): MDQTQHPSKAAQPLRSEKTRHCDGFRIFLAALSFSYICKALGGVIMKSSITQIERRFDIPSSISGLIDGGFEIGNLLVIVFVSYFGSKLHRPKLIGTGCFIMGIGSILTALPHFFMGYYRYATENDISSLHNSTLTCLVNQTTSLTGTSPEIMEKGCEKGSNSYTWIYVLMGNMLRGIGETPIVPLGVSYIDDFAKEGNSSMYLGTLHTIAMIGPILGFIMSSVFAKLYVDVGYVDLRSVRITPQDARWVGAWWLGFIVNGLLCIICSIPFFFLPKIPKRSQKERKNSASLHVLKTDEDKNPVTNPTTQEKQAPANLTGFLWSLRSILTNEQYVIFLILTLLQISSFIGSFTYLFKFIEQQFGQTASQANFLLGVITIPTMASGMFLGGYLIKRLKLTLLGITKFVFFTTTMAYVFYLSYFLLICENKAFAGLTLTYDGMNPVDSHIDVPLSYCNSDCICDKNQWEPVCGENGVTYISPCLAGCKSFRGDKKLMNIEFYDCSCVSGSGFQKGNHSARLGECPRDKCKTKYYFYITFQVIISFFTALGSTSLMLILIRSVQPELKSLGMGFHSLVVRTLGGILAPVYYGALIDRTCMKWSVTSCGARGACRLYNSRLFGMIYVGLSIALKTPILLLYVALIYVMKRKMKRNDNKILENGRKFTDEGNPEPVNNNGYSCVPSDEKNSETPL
Put plainly: cis-inhibition of mOATP1B2-mediated E1S or TCA uptake in HEK293 cells. Type of data set: cell-based. Here is the method:
Inhibition experiments with mOATP1B2 and rOATP2B1 were carried out in triplicate as cis-inhibition. […] Inhibitory effects were calculated as a percentage of the net-uptake rates. […] The means ± average deviation (AD, for N = 2) were calculated from two experiments on two different days. The significance as a p-value was calculated using Student's t-test in Microsoft Excel.

Data set [2] has as its target T2, hOATP1B1 (Homo sapiens, UniProt Q9Y6L6).
T2 sequence (Q9Y6L6 1-691): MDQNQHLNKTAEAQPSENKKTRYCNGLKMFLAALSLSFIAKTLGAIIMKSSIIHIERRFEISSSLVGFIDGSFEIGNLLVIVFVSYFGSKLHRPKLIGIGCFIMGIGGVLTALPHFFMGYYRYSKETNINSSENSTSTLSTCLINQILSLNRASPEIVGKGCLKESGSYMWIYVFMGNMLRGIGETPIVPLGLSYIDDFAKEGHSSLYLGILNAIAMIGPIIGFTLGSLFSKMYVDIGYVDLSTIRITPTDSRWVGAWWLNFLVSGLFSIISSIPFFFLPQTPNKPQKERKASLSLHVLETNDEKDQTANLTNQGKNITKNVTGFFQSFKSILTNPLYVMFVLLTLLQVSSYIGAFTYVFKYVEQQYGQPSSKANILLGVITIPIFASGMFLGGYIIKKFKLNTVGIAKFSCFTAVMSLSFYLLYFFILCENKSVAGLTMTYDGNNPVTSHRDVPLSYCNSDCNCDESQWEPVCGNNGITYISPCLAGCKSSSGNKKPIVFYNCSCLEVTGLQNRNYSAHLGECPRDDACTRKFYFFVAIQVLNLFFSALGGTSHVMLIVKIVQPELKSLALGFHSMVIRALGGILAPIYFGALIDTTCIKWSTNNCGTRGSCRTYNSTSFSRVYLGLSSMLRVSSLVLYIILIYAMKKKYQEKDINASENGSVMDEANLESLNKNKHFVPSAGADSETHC
To be noted: read-out: IC50 for hOATP1B1, cited from earlier work.

Data set [3] has as its target T3, hOATP1B3 (Homo sapiens, UniProt Q9NPD5).
T3 sequence (Q9NPD5 1-702): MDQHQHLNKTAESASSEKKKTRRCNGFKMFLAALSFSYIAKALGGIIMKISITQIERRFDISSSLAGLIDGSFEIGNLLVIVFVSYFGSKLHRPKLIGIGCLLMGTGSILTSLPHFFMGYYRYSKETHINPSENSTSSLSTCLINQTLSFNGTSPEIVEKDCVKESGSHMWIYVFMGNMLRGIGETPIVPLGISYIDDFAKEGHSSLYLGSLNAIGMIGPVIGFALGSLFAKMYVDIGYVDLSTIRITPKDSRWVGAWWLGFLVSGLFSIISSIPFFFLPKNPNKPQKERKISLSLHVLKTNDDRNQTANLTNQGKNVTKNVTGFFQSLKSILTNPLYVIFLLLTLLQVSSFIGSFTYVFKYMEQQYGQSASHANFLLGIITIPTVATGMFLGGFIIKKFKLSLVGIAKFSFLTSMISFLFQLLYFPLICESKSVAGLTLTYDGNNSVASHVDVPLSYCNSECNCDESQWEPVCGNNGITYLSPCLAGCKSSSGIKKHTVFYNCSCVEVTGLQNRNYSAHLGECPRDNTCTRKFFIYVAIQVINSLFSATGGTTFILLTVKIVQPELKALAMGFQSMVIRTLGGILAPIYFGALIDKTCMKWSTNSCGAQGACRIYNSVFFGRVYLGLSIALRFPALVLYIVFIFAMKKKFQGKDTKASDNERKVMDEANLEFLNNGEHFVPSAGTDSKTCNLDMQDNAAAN
The conditions noted are these: read-out: IC50 for OATP1B3; cited from earlier work.

The target of data set [4] is T2, hOATP1B1. Further details: expressed in transfected cells; host or cells: HEK-293, stably transfected. To be noted: read-out: Km as substrate of hOATP1B1; cited from earlier work.
Data set [5] has as its target T3, hOATP1B3. More on the design: expressed in transfected cells; host or cells: HEK-293, stably transfected. To be noted: read-out: Km as substrate of hOATP1B3; cited from earlier work.
[6] abbreviates: HEK293, 10 µM drug, 1 µM [3H]-E1S, 1 min, read-out: Inhibitory effect on mOATP1B2-mediated E1S uptake.
[7] abbreviates: HEK293, read-out: Inhibitory effect on mOATP1B2-mediated TCA uptake, 10 µM drug, 1 µM [3H]-TCA, 1 min.
[8] abbreviates: HEK293, read-out: Inhibitory effect on mOATP1B2-mediated substrate uptake (summary over E1S and TCA), 10 µM drug, substrates E1S and TCA not separated.

Each structure is given as a SMILES string. Entries after “also recorded” stand apart in the source; their conditions may differ. Where two headings read alike, the source gives them in different places.

As for `CCCCC1(CCCC)CN(c2ccccc2)c2cc(SC)c(OCC(=O)N[C@@H](C(=O)N[C@@H](CC)C(=O)O)c3ccc(O)cc3)cc2S(=O)(=O)N1` [Odevixibat, odevixibat], the inhibition at 10 µM in data set [1] (setting [6]) was 69%; in data set [1] (setting [7]) it was 54%; in data set [1] (setting [8]), 54 to 82%.

One may read the IC50 as the midpoint of a concentration-inhibition curve. `Clc1ccccc1C(c1ccccc1)(c1ccccc1)n1ccnc1` [Clotrimazole, clotrimazole]: the IC50 in data set [2] is 9 µM. Also, the “Inhibitory effect on mOATP1B2-mediated substrate uptake (summary over E1S and TCA)” value in data set [1] (10 µM drug, substrates E1S and TCA not separated) is given as “no inhibitory properties; also recorded: did not inhibit”. The inhibition at 10 µM was 6% in data set [1] (setting [6]) and -2% in data set [1] (setting [7]).

As to `CC(C)CN(C[C@@H](O)[C@H](Cc1ccccc1)NC(=O)O[C@H]1CCOC1)S(=O)(=O)c1ccc(N)cc1` [Amprenavir, amprenavir], the 50% inhibitory concentration (IC50) in data set [3] was 19.1 µM; in data set [2] (ref Karlgren et al. (2012) [21]) it was 16.8 µM. The inhibition at 10 µM is 12% in data set [1] (setting [6]), 32% in data set [1] (setting [7]) and less than 50% in data set [1] (setting [8]).

As usually defined, the Km is the concentration of substrate that gives half-maximal velocity. Take `CC(C)c1nc(N(C)S(C)(=O)=O)nc(-c2ccc(F)cc2)c1/C=C/[C@@H](O)C[C@@H](O)CC(=O)O` [Rosuvastatin, rosuvastatin]: the figures for the Km in data set [4] and in data set [5] were 800 nM and 14.2 µM, respectively. Moreover, the inhibition at 10 µM in data set [1] (setting [6]) was 50%; in data set [1] (setting [7]), 52%; in data set [1] (setting [8]) it was no less than 50%.

As for `CO[C@H]1/C=C/O[C@@]2(C)Oc3c(C)c(O)c4c(O)c(c(/C=N/N5CCN(C)CC5)c(O)c4c3C2=O)NC(=O)/C(C)=C\C=C\[C@H](C)[C@H](O)[C@@H](C)[C@@H](O)[C@@H](C)[C@H](OC(C)=O)[C@@H]1C` [Rifampicin, rifampicin], the 50% inhibitory concentration (IC50) in data set [1] (1 µM [3H]-E1S, 1 min, read-out: IC50, mOATP1B2-mediated E1S uptake) was 9.6 µM; in data set [1] (IC50, mOATP1B2-mediated TCA uptake, 1 µM [3H]-TCA, 1 min), 7.7 µM. Besides, the “difference in inhibition between mOATP1B2 and rOATP1B2” value in data set [1] (10 µM drug) is given as greater than 30%. In addition, the inhibition at 10 µM in data set [1] (setting [6]) was 44%; in data set [1] (setting [7]), 53%; in data set [1] (setting [8]), no less than 50%.

As for `CC(=O)N1CCN(c2ccc(OCC3COC(Cn4ccnc4)(c4ccc(Cl)cc4Cl)O3)cc2)CC1` (stereo not drawn) [Ketoconazole, ketoconazole], in data set [2] (estradiol-17β-glucuronide as substrate), the concentration for half-maximal inhibition (IC50) is 1.8 µM. The inhibition at 10 µM is 41% in data set [1] (setting [6]), 29% in data set [1] (setting [7]) and less than 50% in data set [1] (setting [8]).

The record behind these values is article PMC12846068, “Insights into Transport Function of the Murine Organic Anion-Transporting Polypeptide OATP1B2 by Comparison with Its Rat and Human Orthologues” (Toxics, 2025).
